In ChEMBL document CHEMBL2321844, “Discovery of nosokophic acid, a predicted intermediate of moenomycins, from nosokomycin-producing Streptomyces sp. K04-0144” (2013):
≈ marks a conversion by molar mass, not a printed value. Calls of active or inactive are those of the source. The calls are words filed in the database; no cut-off is given here.

What was measured:
Format in all cases: functional
Staphylococcus aureus [1] = assay: Antimicrobial activity against methicillin-resistant Staphylococcus aureus after 20 hrs by liquid microdilution method
Staphylococcus aureus [2] = assay: Potentiation of streptomycin antimicrobial activity against methicillin-resistant Staphylococcus aureus at 10 ug/ml after 20 hrs by liquid microdilution method
Staphylococcus aureus [3] = assay: Potentiation of tetracycline antimicrobial activity against methicillin-resistant Staphylococcus aureus at 10 ug/ml after 20 hrs by liquid microdilution method

| SMILES | Activity (Staphylococcus aureus [1]) | MIC (Staphylococcus aureus [1]) [µg/mL] | fractional inhibitory concentration index (FICI) (Staphylococcus aureus [2]) | fractional inhibitory concentration index (FICI) (Staphylococcus aureus [3]) |
| --- | --- | --- | --- | --- |
| CC(C)=CCC/C(C)=C/CC/C(C)=C\COC(COP(=O)(O)O[C@H]1O[C@H](C(N)=O)[C@H](O)[C@H](O)[C@H]1O)C(=O)O (some centres not stated) | inactive | – | – | – |
| C[C@@H](O)[C@H]1C(=O)N2C(C(=O)O)=C(SCCNC=N)C[C@H]12 [IMIPENEM ANHYDROUS] | – | 16 (≈ 53.4 µM) | – | – |
| CN[C@@H]1[C@H](O[C@H]2[C@H](O[C@H]3[C@H](O)[C@@H](O)[C@H](N=C(N)N)[C@@H](O)[C@@H]3N=C(N)N)O[C@@H](C)[C@]2(O)C=O)O[C@@H](CO)[C@H](O)[C@H]1O [STREPTOMYCIN] | – | 2 (≈ 3.44 µM) | 1 | – |
| CN(C)[C@@H]1C(O)=C(C(N)=O)C(=O)[C@@]2(O)C(O)=C3C(=O)c4c(O)cccc4[C@@](C)(O)[C@H]3C[C@@H]12 [TETRACYCLINE] | – | 32 (≈ 72 µM) | – | 1 |
| CN[C@H](CC(C)C)C(=O)N[C@H]1C(=O)N[C@@H](CC(N)=O)C(=O)N[C@H]2C(=O)N[C@H]3C(=O)N[C@H](C(=O)N[C@H](C(=O)O)c4cc(O)cc(O)c4-c4cc3ccc4O)[C@H](O)c3ccc(c(Cl)c3)Oc3cc2cc(c3O[C@@H]2O[C@H](CO)[C@@H](O)[C@H](O)[C@H]2O[C@H]2C[C@](C)(N)[C@H](O)[C@H](C)O2)Oc2ccc(cc2Cl)[C@H]1O [VANCOMYCIN] | – | 0.5 (≈ 0.345 µM) | – | – |
